Results: patent publication US20240385182A1, “MASKED FLUOROGENIC LIPID COMPOUNDS, LIPID PARTICLES COMPRISING THE SAME, AND METHODS OF USE THEREOF” (Rutgers, The State University of New Jersey, priority 2023, published 2024)
Values belong to the molecule of their own block, whether it stands above or below them.

Key:
[1] = Confocal imaging of H2O2-sensing giant vesicles
Text: FIGS. 14A-14B: giant vesicles (GVs) that can sense reductive (FIG. 14A) or oxidative (FIG. 14B) environments. Confocal images acquired for H2S-sensing GV at 405/475 nm (ex/em) (FIG. 14A) and H2O2 sensing GV at 490/520 nm (ex/em) (FIG. 14B). Lipid compositions of GVs: POPC, POPG, cholesterol, and DPPC-TC-H2S (48:21:30:1 molar ratio; FIG. 14A); and POPC, POPG, cholesterol, and DPPC-TF-H2O2 (48.5:21:30:0.5; FIG. 14B). To label vesicle membranes, Liss-Rhod PE dye (563/580 nm) was introduced to the lipid mixture at an insignificant molar ratio (0.1 mol %). Concentrations of RSS and ROS were set to 500 and 100 μM, respectively. Scale bar=5 μm.
The redox sensing abilities of giant vesicles (GVs) comprising DPPC-TC-H2S or DPPC-TF-H2O2 were investigated. In most biomimetic systems that rely on compartmentalization, physical membrane boundaries are comprised of phospholipids and cholesterol. These lipid self-assemblies have dimensional properties (1-30 μm in diameter) relevant to those of a mammalian plasma membrane (10-100 μm), display physical characteristics feasible for confocal fluorescence imaging, and are conveniently utilized for bottom-up construction of biomimetic protocells. […]
The vesicle size distribution was analyzed by dynamic light scattering (DLS), confirming the presence of GVs. […]

[2] = Photophysical characterization of probes and uncaged forms (relative fluorescence quantum yield, extinction coefficient, brightness); format: physicochemical; details: for Brightness: in M⁻¹·cm⁻¹ (unit assumed)
Experimental: (§1) The pKa of TEG-TC was determined to be 7.1±0.1 using UV-Vis spectrophotometric measurements. Under the confocal imaging conditions (pH 7.5-8.5 with cell-free assays, pH 7.4 with cells), a substantial population of the 7-hydroxycoumarin should exist in its aryloxide form. The change in coumarin fluorogenicity was assessed upon uncaging the probes from the oxobutylphenyl carbonate by measuring the relative fluorescence quantum yield (ΦFrel) values (Table 2). Coumarin 343 was used as a standard, which has an absolute fluorescence quantum yield ([…]) of 0.63 in ethanol. The ΦFrel values of TEG-TC-ONOO^− (entry 1) and DPPC-TC-ONOO^− (entry 3) were measured as 0.08 and 0.09, respectively. […] The ΦFrel values for TEG-TC (entry 2) and DPPC-TC (entry 4), which were synthesized independently, were measured as 0.66 and 0.64, respectively.
Next, the impact of caging and uncaging of the coumarin or fluorescein moieties on their fluorogenicity was assessed by measuring the relative fluorescence quantum yield (ΦFrel) values (Table 3). Coumarin 343 was used as the standard for measuring ΦFrel of the triazole-coumarin compounds (TEG-TC-H2S, TEG-TC, DPPC-TC-H2S, and DPPC-TC) whereas fluorescein for the triazole-fluorescein compounds (TEG-TF-H2O2, TEG-TF, and DPPC-TF-H2O2, and DPPC-TF). Relative to coumarin 343, whose absolute fluorescence quantum yield (ΦF) is 0.63 in ethanol, ΦFrels of the H2S probes TEG-TC-H2S (entry 1) and DPPC-TC-H2S (entry 3) were determined to be 0.07 and 0.03, respectively.
(§2) The pKa of TEG-TC was previously found to be to be 7.1±0.1 using UV-Vis spectrophotometric measurements. Under the fluorescence activation assay conditions that are employed here (Tris 50 mM, pH 7.5), a substantial population of the coumarin moiety is expected to be in its aryloxide anion form. Relative to fluorescein, whose ΦF is 0.79 in ethanol, ΦFrel values of the H2O2 probes TEG-TF-H2O2 (entry 5) and DPPC-TF-H2O2 (entry 7) were determined to be 0.04 and 0.02, respectively.

[3] = in ethanol; standard; cited from earlier work
[4] = tested on: HeLa and RAW 264.7 cells; experiment: Subcellular localization of non-amphiphilic probes in cells treated directly; format: cell-based; details: 20 minutes, TEG-TC-ONOO− cells then stimulated
Experimental: Therefore, cells were treated with TEG-TC (positive control) or TEG-TC-ONOO− directly and incubated for 20 minutes. Those treated with TEG-TC-ONOO− were then stimulated via the methods described above. […] In the case of RAW 264.7 cells, the intracellular homogeneity of the signal was especially substantial.

[5] = Peroxynitrite-specificity: TEG-TC-ONOO^− subjected to other redox species; details: for F/F0: 60 min
Experimental: FIG. 7A: time-dependent change in relative fluorescence intensities for probe TEG-TC-ONOO^− (1 μM) and compound TEG-TC (1 μM) in Tris (50 mM, pH 7.5) upon addition of ONOO^− (600 μM). Filled square: TEG-TC, hollow square: TEG-TC+ONOO^−, filled circle: TEG-TC-ONOO^−, and hollow circle: TEG-TC-ONOO^−+ONOO^−. Error bars represent standard deviation, n=3. FIG. 7B: relative fluorescence intensity (F) with respect to the background fluorescence intensity (F0) of TEG-TC-ONOO^− in the absence or presence of redox species. Probe TEG-TC-ONOO^− (1 μM) was dissolved in Tris buffer (50 mM, pH 7.5) and subjected to RNS and ROS (600 μM): ONOO^−, NO·, H2O2, HO·, ^1O2, and O·^−. Data represent FIFO measurements for samples incubated for 60 min. Plate reader was set to excitation at 405 nm and emission at 475 nm. Error bars represent standard deviation, n=3. The peroxynitrite-specificity of the probe design was assessed by subjecting TEG-TC-ONOO^− to other redox species, including NO·, hydrogen peroxide (H2O2), singlet oxygen (^1O2), hydroxyl radicals (HO·), and O2·^− (FIG. 7B). Change in fluorescence intensity following excitation at 405 nm was measured over 60 minutes of incubation of TEG-TC-ONOO^− with each species and presented based on the signal-to-background ratio F/F0, where F and F0 are defined as the fluorescence with and without the analyte. In the absence of a redox species, F/F0 for TEG-TC-ONOO^− increased only 13% (F/F0=1.13) over 60 minutes. Treatment of TEG-TC-ONOO^− with ONOO^− gave rise to ˜570% increase in fluorescence (F/F0=6.69). […] NO·, a free radical RNS that serves as a signaling molecule in cells, had essentially no effect on fluorescence intensity (F/F0=1.03).

[6] = Fluorescence response of TEG-TC-ONOO^− to peroxynitrite in Tris buffer (plate reader)
Experimental: FIG. 7A: time-dependent change in relative fluorescence intensities for probe TEG-TC-ONOO^− (1 μM) and compound TEG-TC (1 μM) in Tris (50 mM, pH 7.5) upon addition of ONOO^− (600 μM). Filled square: TEG-TC, hollow square: TEG-TC+ONOO^−, filled circle: TEG-TC-ONOO^−, and hollow circle: TEG-TC-ONOO^−+ONOO^−. Error bars represent standard deviation, n=3. FIG. 7B: relative fluorescence intensity (F) with respect to the background fluorescence intensity (F0) of TEG-TC-ONOO^− in the absence or presence of redox species. Probe TEG-TC-ONOO^− (1 μM) was dissolved in Tris buffer (50 mM, pH 7.5) and subjected to RNS and ROS (600 μM): ONOO^−, NO·, H2O2, HO·, ^1O2, and O·^−. Data represent FIFO measurements for samples incubated for 60 min. Plate reader was set to excitation at 405 nm and emission at 475 nm. Error bars represent standard deviation, n=3. The response rate and magnitude of TEG-TC-ONOO^− against ONOO^− was evaluated by measuring the relative fluorescence intensities of samples containing TEG-TC-ONOO^− and TEG-TC (positive control) at 405 nm excitation (FIG. 7A). These samples, prepared in Tris buffer (50 mM, pH 7.5), were measured over 60 minutes of incubation with and without ONOO^−. Physiologically normal ONOO^− production rate in cells has been estimated to be in the single-digit μM range, while reaching up to 100 μM under dysregulated conditions. Guided by this information, and in agreement with the fluorescence titration conditions employed for cytosolic resorufin-based peroxynitrite sensors, it was reasoned that administering 600 μM of ONOO^− into a pH 7.5 medium would provide a steady level of effective ONOO^− within a biologically relevant concentration range of […]. […] The difference in fluorescence between the peroxynitrite-treated and untreated samples reached up to 5-fold at the end of 60 minutes. During this time period, the relative fluorescence intensity of the sample containing TEG-TC-ONOO^− became ˜85% of that of the sample containing TEG-TC (positive control). This trend of increasing fluorescence output was mirrored in the level of conversion of TEG-TC-ONOO^− into TEG-TC based on UV-Vis spectrophotometric measurements. The peroxynitrite-specificity of the probe design was assessed by subjecting TEG-TC-ONOO^− to other redox species, including NO·, hydrogen peroxide (H2O2), singlet oxygen (^1O2), hydroxyl radicals (HO·), and O2·^− (FIG. 7B). Change in fluorescence intensity following excitation at 405 nm was measured over 60 minutes of incubation of TEG-TC-ONOO^− with each species and presented based on the signal-to-background ratio F/F0, where F and F0 are defined as the fluorescence with and without the analyte. In the absence of a redox species, F/F0 for TEG-TC-ONOO^− increased only 13% (F/F0=1.13) over 60 minutes. Treatment of TEG-TC-ONOO^− with ONOO^− gave rise to ˜570% increase in fluorescence (F/F0=6.69).

[7] = pKa by UV-Vis spectrophotometric measurements; format: physicochemical
Experimental: as §1, §2

Emmax [2]: 519.5 nm
Exmax [2]: 495.2 nm
Ext. Coeff. [2]: 10685 M⁻¹ cm⁻¹
Relative Brightness ([2]; Table 3, brightness compared to that of DPPC-TF-H2O2): 1.0
Brightness [2]: 214
Quantum Yield (relative fluorescence quantum yield ΦFrel) ([2]; standard fluorescein): 0.02
SMILES: CCCCCCCCCCCCCCCC(=O)OCC(COP(=O)([O-])OCC[N+](C)(C)Cc1cn(-c2ccc3c(c2)C(=O)OC32c3ccc(OC(=O)OCc4ccc(B5OC(C)(C)C(C)(C)O5)cc4)cc3Oc3cc(OC(=O)OCc4ccc(B5OC(C)(C)C(C)(C)O5)cc4)ccc32)nn1)OC(=O)CCCCCCCCCCCCCCC (racemic) [DPPC-TF-H2O2]
GV fluorescence at the membrane ([1]; GVs with POPC, POPG, cholesterol, H2O2 (100 PM) over 90 min): substantial fluorescence increase
GV fluorescence intensities ([1]; equimolar other ROS (NO, ·OH, O2·^−)): comparable to those for the untreated GVs

SMILES: O=C(O)c1cc2cc3c4c(c2oc1=O)CCCN4CCC3 [Coumarin 343]
absolute fluorescence quantum yield (ΦF) [3]: 0.63

Emmax [2]: 472.0 nm
Exmax [2]: 400.0 nm
Ext. Coeff. [2]: 4475 M⁻¹ cm⁻¹
Relative Brightness ([2]; Table 2, DPPC-TC-ONOO^− = 1.0): 1.4
Brightness [2]: 358
Quantum Yield (relative fluorescence quantum yield ΦFrel) ([2]; standard coumarin 343): 0.08
SMILES: O=C(Oc1ccc(CCC(=O)C(F)(F)F)cc1)Oc1ccc2cc(-n3cc(COCCOCCOCCO)nn3)c(=O)oc2c1 [TEG-TC-ONOO^−]
subcellular distribution of signal [4]: throughout the cells, including the nucleus
relative fluorescence enhancement for ONOO^− compared to the other RNS and ROS [5]: ~36 fold
F/F0 ([5]; H2O2 600 μM): 1.16
fluorescence intensity stronger than background ([5]; H2O2, 60 min): 16%
F/F0 ([5]; NO· 600 μM): 1.03
F/F0 ([6]; ONOO^− 600 μM, 60 min, 405/475 nm): 6.69
difference in fluorescence between peroxynitrite-treated and untreated samples ([6]; ONOO^− (600 PM), Tris 50 mM pH 7.5, end of 60 minutes): up to 5 fold
relative fluorescence intensity as % of that of TEG-TC (positive control) ([6]; ONOO^− treated, 60 minutes): ~85%
F/F0 ([6]; absence of a redox species, 60 minutes, 405 nm excitation): 1.13
increase in F/F0 ([6]; absence of a redox species, over 60 minutes): 13%
fluorescence compared to the sample untreated ([6]; probe 1 μM, ONOO^− (600 PM), Tris 50 mM pH 7.5, within the first 10 minutes): ~3 fold
increase in fluorescence ([6]; treatment with ONOO^−, 60 min): ~570%

pKa [7]: 7.1±0.1
Emmax [2]: 471.4 nm
Exmax [2]: 397.0 nm
Ext. Coeff. [2]: 15613 M⁻¹ cm⁻¹
enhanced brightness, uncaging product vs caged probe [2]: 28 fold
Relative Brightness ([2]; Table 2, DPPC-TC-ONOO^− = 1.0): 41.1
Relative Brightness ([2]; Table 3, brightness compared to that of DPPC-TC-H2S): 143.2
Brightness [2]: 10305
Quantum Yield (relative fluorescence quantum yield ΦFrel) ([2]; standard coumarin 343): 0.66
SMILES: O=c1oc2cc(O)ccc2cc1-n1cc(COCCOCCOCCO)nn1 [TEG-TC]
subcellular distribution of signal [4]: throughout the cells, including the nucleus
